Key:
[1] = in vivo; cited from earlier work
[2] = system: C57/Bl6 mice; experiment: Behavioral evaluation assay (SmartCube test); assay type: in vivo; details: FIG. 1
Method: The CNS-like activity of test compounds after acute intraperitoneal administration was evaluated in naïve C57/Bl6 mice using the SmartCube® test.
Male C57/Bl6 mice from Taconic Laboratories (Germantown, NY) were used. Upon receipt, mice were group-housed in Optimice® ventilated cages with 4 mice per cage. Mice were acclimated to the colony room for at least one week prior to test, and subsequently tested at approximately 8-9 weeks of age. All animals were examined, handled, and weighed prior to initiation of the study to assure adequate health and suitability and to minimize nonspecific stress associated with manipulation. During the course of the study, 12/12 light/dark cycles were maintained. The room temperature was 20-23° C. with a relative humidity maintained between 30-70%. Chow and water were provided ad libitum for the duration of the study.
Test compounds were formulated in 5% Pharmasolve, 30% P3 (1:1:1 PEG200, PEG400, propylene glycol) and 65% saline. […]
For class and subclass analysis, a reference dataset has been built from hundreds of drug doses in multiple drug classes plus a control group. […] Multiple analyses of the data was performed to quantitatively produce independent predictions of drug class, and drug subclass. The behavioral signatures of the test drug were evaluated using these classifiers to predict potential therapeutic utility.

[3] = biological target: SERT (Homo sapiens (Human), UniProt P31645); experiment: SERT inhibition assay (Neurotransmitter Transporter Fluorescence assay); assay type: cell-based; details: class symbols; legend in nM/micromolar
Sequence of SERT (P31645 whole entry, species assumed): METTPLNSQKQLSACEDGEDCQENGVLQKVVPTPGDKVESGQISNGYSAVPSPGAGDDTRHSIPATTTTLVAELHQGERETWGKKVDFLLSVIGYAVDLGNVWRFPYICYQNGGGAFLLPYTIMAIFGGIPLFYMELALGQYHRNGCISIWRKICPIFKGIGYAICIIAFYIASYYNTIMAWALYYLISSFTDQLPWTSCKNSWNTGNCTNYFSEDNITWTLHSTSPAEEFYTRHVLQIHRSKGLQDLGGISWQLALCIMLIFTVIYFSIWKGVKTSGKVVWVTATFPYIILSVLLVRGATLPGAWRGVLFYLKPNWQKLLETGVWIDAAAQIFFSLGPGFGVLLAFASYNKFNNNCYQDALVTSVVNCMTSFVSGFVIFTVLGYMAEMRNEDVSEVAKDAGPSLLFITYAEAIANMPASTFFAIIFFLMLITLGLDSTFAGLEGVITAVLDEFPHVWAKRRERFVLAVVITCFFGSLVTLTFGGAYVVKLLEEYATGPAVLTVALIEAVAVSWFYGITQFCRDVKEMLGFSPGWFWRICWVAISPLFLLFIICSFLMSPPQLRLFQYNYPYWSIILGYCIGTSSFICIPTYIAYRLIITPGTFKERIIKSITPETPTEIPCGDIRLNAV
Method: SERT inhibition was measured using a Neruotransmitter Transportation Fluorescence assay. Briefly, stable 5HHH cells were prepared in a 384 microwell plate. Compounds were prepared by in assay buffer (20 mM HEPES, 0.1% BSA). The compounds were added to the plated cells and incubated for 30 minutes at 37° C. 25 μL of dye solution (Molecular Devices Neurotransmitter Transporter Uptake Assay Kit) was added per well and incubated for 30 minutes at 37° C. The plates were then read on a plate reader.

[4] = biological target: PDE4A1A (Homo sapiens (Human), UniProt P27815); experiment: PDE4 percent inhibition assay; assay type: biochemical; details: 10 μM
Sequence of PDE4A1A (P27815 other isoform, or with tags, fused parts or gaps): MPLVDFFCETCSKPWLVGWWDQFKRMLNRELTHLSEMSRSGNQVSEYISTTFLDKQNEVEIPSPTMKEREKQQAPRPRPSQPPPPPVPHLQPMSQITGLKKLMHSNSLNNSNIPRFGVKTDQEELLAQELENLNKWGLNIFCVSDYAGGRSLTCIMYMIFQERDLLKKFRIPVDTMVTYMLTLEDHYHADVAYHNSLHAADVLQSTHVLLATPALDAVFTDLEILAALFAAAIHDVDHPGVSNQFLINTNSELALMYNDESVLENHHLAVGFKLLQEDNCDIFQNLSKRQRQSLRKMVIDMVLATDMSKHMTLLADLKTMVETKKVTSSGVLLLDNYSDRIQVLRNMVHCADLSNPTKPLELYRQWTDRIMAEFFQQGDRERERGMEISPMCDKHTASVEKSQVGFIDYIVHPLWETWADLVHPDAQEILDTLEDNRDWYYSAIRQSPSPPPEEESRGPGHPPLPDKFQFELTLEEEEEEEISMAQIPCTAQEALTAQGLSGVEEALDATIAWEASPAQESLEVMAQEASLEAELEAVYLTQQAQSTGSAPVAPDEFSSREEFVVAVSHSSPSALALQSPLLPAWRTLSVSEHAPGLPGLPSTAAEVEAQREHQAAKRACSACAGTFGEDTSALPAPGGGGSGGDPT
Method: (§1) PDE4 assay kit (BPS Bioscience, San Diego, CA), as described below.
(§2) • 1) Dilute 20 μM FAM-Cyclic-3′, 5′-AMP stock 100-fold with PDE buffer to make a 200 nM solution. Make only sufficient quantity needed for the assay; store remaining 20 μM stock solution in aliquots at −20° C. • 2) Add 25 μl of FAM-Cyclic-3′,5′-AMP (200 nM) to each well designated “Positive Control”, “Test Inhibitor”, and “Substrate Control”. • 3) Add 20 μl of PDE assay buffer to each well designated “Substrate Control” and 45 μl of PDE assay buffer to each well designated “Blank”. • 4) Add 5 μl of inhibitor solution to each well designated “Test Inhibitor”. For the wells labeled “Positive Control”, “Substrate Control” and “Blank”, add 5 μl of the same solution without inhibitor (inhibitor buffer). • 5) Thaw PDE on ice. Upon first thaw, briefly spin tube containing enzyme to recover the full contents of the tube. • 6) Dilute PDE4 in PDE buffer to 7.5 pg/μl (0.15 ng/reaction)*. Initiate reaction by adding 20 μl of PDE4 (7.5 pg/μl) to the wells designated “Positive Control” and “Test Inhibitor.” • 7) Incubate at room temperature for 1 hour.
(§3) • 1) Mix binding agent thoroughly and dilute binding agent 1:100 with binding agent diluent. • 2) Add 100 μl diluted binding agent to each microwell. Incubate at room temperature for 1 hour with slow shaking. • 3) Read the fluorescent polarization of the sample in a microtiter-plate reader equipped for the measurement of fluorescence polarization, capable of excitation at wavelengths ranging from 485±5 nm and detection of emitted light ranging from 528±10 nm. Blank value is subtracted from all other values.
(§4) 100 µM dilutions of the test compounds were prepared in assay buffer (10% DMSO concentration) and 5 μl of the dilution was added to a 50 μl reaction so that the final concentration of DMSO is 1% in all of reactions.
(§5) The enzymatic reactions were conducted at room temperature for 60 minutes in a 50 μl mixture containing PDE assay buffer, 100 nM FAM-cAMP, a PDE enzyme and the test compound.
(§6) After the enzymatic reaction, 100 Is of a binding solution (1:100 dilution of the binding agent with the binding agent diluent) was added to each reaction and the reaction was performed at room temperature for 60 minutes.
(§7) Fluorescence intensity was measured at an excitation of 485 nm and an emission of 528 nm using a Tecan Infinite M1000 microplate reader.

[5] = biological target: PDE4B2 (Homo sapiens (Human), UniProt Q07343); experiment: PDE4 percent inhibition assay; assay type: biochemical; details: 10 μM
Sequence of PDE4B2 (Q07343 other isoform, or with tags, fused parts or gaps): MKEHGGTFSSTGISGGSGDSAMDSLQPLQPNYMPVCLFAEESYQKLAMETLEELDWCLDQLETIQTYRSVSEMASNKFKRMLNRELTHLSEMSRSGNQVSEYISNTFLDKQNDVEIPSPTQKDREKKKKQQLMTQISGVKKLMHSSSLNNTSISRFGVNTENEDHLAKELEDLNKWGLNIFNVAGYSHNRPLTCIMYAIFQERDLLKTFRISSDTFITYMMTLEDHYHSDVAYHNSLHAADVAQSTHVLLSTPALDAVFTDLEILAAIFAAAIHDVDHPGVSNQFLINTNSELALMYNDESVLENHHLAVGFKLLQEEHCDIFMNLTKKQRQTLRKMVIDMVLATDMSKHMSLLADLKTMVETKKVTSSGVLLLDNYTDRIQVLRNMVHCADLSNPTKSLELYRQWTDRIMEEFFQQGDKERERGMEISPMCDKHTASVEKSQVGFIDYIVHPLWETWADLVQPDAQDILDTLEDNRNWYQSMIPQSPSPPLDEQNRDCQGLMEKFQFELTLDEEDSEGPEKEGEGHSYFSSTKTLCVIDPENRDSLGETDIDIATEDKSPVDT
Method: as §1, §2, §3, §4, §5, §6, §7

[6] = biological target: PDE4C1 (Homo sapiens (Human), UniProt Q08493); experiment: PDE4 percent inhibition assay; assay type: biochemical; details: 10 μM
Sequence of PDE4C1 (Q08493 whole entry): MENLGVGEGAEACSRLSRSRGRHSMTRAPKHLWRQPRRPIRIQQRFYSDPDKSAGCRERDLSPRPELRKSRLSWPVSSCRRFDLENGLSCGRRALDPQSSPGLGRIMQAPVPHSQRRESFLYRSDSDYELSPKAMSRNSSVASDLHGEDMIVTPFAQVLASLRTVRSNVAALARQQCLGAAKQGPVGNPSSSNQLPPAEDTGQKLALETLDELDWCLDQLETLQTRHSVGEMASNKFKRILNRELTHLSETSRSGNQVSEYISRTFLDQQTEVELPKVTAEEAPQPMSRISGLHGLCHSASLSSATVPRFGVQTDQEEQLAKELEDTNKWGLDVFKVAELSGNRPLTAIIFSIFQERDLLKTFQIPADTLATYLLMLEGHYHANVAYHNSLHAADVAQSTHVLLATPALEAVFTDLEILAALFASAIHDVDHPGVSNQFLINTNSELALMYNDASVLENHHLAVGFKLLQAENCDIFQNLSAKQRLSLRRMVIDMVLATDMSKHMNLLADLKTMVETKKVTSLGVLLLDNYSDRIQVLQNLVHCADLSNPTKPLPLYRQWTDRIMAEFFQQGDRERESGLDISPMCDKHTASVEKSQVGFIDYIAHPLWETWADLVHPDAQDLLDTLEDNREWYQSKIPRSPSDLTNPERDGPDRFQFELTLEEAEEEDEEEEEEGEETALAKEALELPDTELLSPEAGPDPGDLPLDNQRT
Method: as §1, §2, §3, §4, §5, §6, §7

[7] = biological target: PDE4D2 (Homo sapiens (Human), UniProt Q08499); experiment: PDE4 percent inhibition assay; assay type: biochemical; details: 10 μM
Sequence of PDE4D2 (Q08499 303-809, change not shown): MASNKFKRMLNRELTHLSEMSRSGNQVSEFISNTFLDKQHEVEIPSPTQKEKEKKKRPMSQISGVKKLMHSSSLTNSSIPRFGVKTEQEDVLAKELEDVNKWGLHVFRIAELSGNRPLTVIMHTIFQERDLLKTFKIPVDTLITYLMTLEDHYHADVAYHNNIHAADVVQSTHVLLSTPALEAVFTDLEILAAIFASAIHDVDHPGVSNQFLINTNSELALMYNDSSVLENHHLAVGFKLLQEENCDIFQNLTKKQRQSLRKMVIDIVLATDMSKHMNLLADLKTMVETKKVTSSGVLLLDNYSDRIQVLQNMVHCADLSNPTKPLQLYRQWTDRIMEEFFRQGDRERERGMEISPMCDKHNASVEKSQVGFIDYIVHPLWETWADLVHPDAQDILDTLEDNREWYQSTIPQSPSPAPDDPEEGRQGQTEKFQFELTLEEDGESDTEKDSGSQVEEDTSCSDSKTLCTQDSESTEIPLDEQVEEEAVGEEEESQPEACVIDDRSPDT
Method: as §1, §2, §3, §4, §5, §6, §7

[8] = biological target: 5-HT transporter (SERT) (Homo sapiens (Human), UniProt P31645); details: concentration response curve; cited from earlier work

| SMILES | half-life in plasma [1] | behavioral phenotype compared to Compound 001 [2] | IC50 [3] | PDE4 Isoform % Inhibition @ 10 μM PDE4A1A [4] | PDE4 Isoform % Inhibition @ 10 μM PDE4B2 [5] | PDE4 Isoform % Inhibition @ 10 μM PDE4C1 [6] | PDE4 Isoform % Inhibition @ 10 μM PDE4D2 [7] | 5-HT transporter (SERT) nH [8] |
| --- | --- | --- | --- | --- | --- | --- | --- | --- |
| COc1ccc([C@@]23CCC(=O)C[C@@H]2N(C)CC3)cc1OC [(−) mesembrine] | less than 2 hours |  |  |  |  |  |  |  |
| COc1ccc([C@@]23CC[C@@H](O)C[C@@H]2N(C)CC3)cc1OC [Compound 018, (3aS,6R,7aS)-3a-(3,4-dimethoxyphenyl)-1-methyloctahydro-1H-indol-6-ol] |  | different behavioral phenotype classification |  |  |  |  |  |  |
| COc1ccc([C@]23CC[C@H](n4ccc(C(F)(F)F)n4)C[C@H]2N(C)CC3)cc1OC [Compound 122] |  |  | > 1000 nM | D (D if the percent inhibition is less than 30%) | D (D if the percent inhibition is less than 30%) | D (D if the percent inhibition is less than 30%) | D (D if the percent inhibition is less than 30%) |  |
| COc1ccc([C@]23CCN(C)[C@H]2[C@H]2CC[C@@H]3CC2=O)cc1OC [Compound 203] |  |  | 50 to 100 nM | D (D if the percent inhibition is less than 30%) | B (B if the percent inhibition is 50-70%) | C (C is the percent inhibition is 30-50%) | B (B if the percent inhibition is 50-70%) |  |
| COc1ccc([C@]23CCN(C)[C@H]2[C@@H]2CC[C@H]3CC2=O)cc1OC [Compound 204] |  |  | 100 to 500 nM | A (A if the % inhibition is greater than or equal to 70%) | A (A if the % inhibition is greater than or equal to 70%) | A (A if the % inhibition is greater than or equal to 70%) | A (A if the % inhibition is greater than or equal to 70%) |  |
| COc1ccc([C@@]23CCN(C)[C@@H]2CC(=O)C[C@@H]3c2ccccc2)cc1OC [Compound 206] |  |  | > 1000 nM | A (A if the % inhibition is greater than or equal to 70%) | A (A if the % inhibition is greater than or equal to 70%) | B (B if the percent inhibition is 50-70%) | A (A if the % inhibition is greater than or equal to 70%) |  |
| COc1ccc([C@]23CCN(C)[C@H]2CC(=O)C[C@H]3c2ccccc2)cc1OC [Compound 207] |  |  | > 1000 nM | B (B if the percent inhibition is 50-70%) | B (B if the percent inhibition is 50-70%) | B (B if the percent inhibition is 50-70%) | B (B if the percent inhibition is 50-70%) |  |
| COc1ccc([C@]23CCN(C)[C@H]2CC(=O)[C@H]2O[C@H]23)cc1OC [Compound 209] |  |  | < 50 nM | A (A if the % inhibition is greater than or equal to 70%) | A (A if the % inhibition is greater than or equal to 70%) | A (A if the % inhibition is greater than or equal to 70%) | A (A if the % inhibition is greater than or equal to 70%) |  |
| COc1ccc([C@@]23CCN(C)[C@@H]2CC(=O)[C@@H]2O[C@@H]23)cc1OC [Compound 210] |  |  | 100 to 500 nM | A (A if the % inhibition is greater than or equal to 70%) | A (A if the % inhibition is greater than or equal to 70%) | A (A if the % inhibition is greater than or equal to 70%) | A (A if the % inhibition is greater than or equal to 70%) |  |
| COc1ccc([C@]23CCN(C)[C@H]2[C@@H]2C[C@H]3CC2=O)cc1OC [Compound 213] |  |  | > 1000 nM | A (A if the % inhibition is greater than or equal to 70%) | A (A if the % inhibition is greater than or equal to 70%) | A (A if the % inhibition is greater than or equal to 70%) | A (A if the % inhibition is greater than or equal to 70%) |  |
| COc1ccc([C@@]23CCN(C)[C@@H]2[C@H]2C[C@@H]3CC2=O)cc1OC [Compound 214] |  |  | 100 to 500 nM | A (A if the % inhibition is greater than or equal to 70%) | C (C is the percent inhibition is 30-50%) | D (D if the percent inhibition is less than 30%) | C (C is the percent inhibition is 30-50%) |  |
| COc1ccc([C@]23CCN(C)[C@H]2[C@H]2C[C@@H]3CC2=O)cc1OC [Compound 215] |  |  | 50 to 100 nM | D (D if the percent inhibition is less than 30%) | D (D if the percent inhibition is less than 30%) | D (D if the percent inhibition is less than 30%) | D (D if the percent inhibition is less than 30%) |  |
| COc1ccc([C@@]23CCN(C)[C@@H]2[C@@H]2C[C@H]3CC2=O)cc1OC [Compound 216] |  |  | 50 to 100 nM | D (D if the percent inhibition is less than 30%) | D (D if the percent inhibition is less than 30%) | C (C is the percent inhibition is 30-50%) | D (D if the percent inhibition is less than 30%) |  |
| COc1ccc([C@]23CCN(C)[C@H]2[C@@H]2CCC[C@H]3CC2=O)cc1OC [Compound 218] |  |  | < 50 nM | D (D if the percent inhibition is less than 30%) | D (D if the percent inhibition is less than 30%) | D (D if the percent inhibition is less than 30%) | D (D if the percent inhibition is less than 30%) |  |
| COc1ccc([C@@]23CCN(C)[C@@H]2[C@H]2CCC[C@@H]3CC2=O)cc1OC [Compound 219] |  |  | 100 to 500 nM | C (C is the percent inhibition is 30-50%) | C (C is the percent inhibition is 30-50%) | B (B if the percent inhibition is 50-70%) | C (C is the percent inhibition is 30-50%) |  |
| COc1ccc([C@@]23C=CC(=O)C[C@@H]2N(C)CC3)cc1OC [Mesembrenone] |  |  |  |  |  |  |  | 1.0 |

Reference: patent publication US20250059156A1, “THERAPEUTIC ALKALOID COMPOUNDS” (Sensorium Therapeutics, Inc., priority 2022, published 2025)
